Reference: patent US20210171576A1, “METHODS FOR TREATING CANCER WITH ACYLDEPSIPEPTIDE ANALOGS” (priority 2018, published 2021)
Where a SMILES comes first, the peptide text is derived from it. Bridges are numbered along the chain shown (N, C = ends). [ ]: non-standard residue; d: D form. The star is where a group is joined. Octatrienoyl(2E,4E,6E) = C/C=C/C=C/C=C/C(=O)*; Phe(3,5-F2) = N[C@@H](Cc1cc(F)cc(F)c1)C(=O)O; Pip(4S-Me) = C[C@H]1CCN[C@H](C(=O)O)C1; Hexadienoyl(2E,4E) = C/C=C/C=C/C(=O)*; Pro(4R-Me) = C[C@H]1CN[C@H](C(=O)O)C1; Heptenoyl(2E) = CCCC/C=C/C(=O)*; Cha = N[C@@H](CC1CCCCC1)C(=O)O; aThr = C[C@H](O)[C@H](N)C(=O)O; Pip = O=C(O)[C@@H]1CCCCN1; X2 = O=C(/C=C/CC1CCCCC1)*; NMeA = CN[C@@H](C)C(=O)O; Abu = CC[C@H](N)C(=O)O; Cbz = O=C(OCc1ccccc1)*; Dap = NC[C@H](N)C(=O)O; X3 = O=C(/C=C/CC1CC1)*; X4 = CCCCC/C=C/C(=O)*; X6 = CCCC/C=C\C(=O)*; X5 = CCCCCC#CC(=O)*; X8 = CCC/C=C/C(=O)*; X10 = CCCC#CC(=O)*; X9 = CCCCC#CC(=O)*

Biological target: T1, human mitochondrial CIpP (HsCIpP) (Homo sapiens, UniProt Q16740)
T1 construct: made in house; host or cells: E. coli SG1146 (BL21(DE3) ΔclpP::cat)
T1 sequence (Q16740 57-277): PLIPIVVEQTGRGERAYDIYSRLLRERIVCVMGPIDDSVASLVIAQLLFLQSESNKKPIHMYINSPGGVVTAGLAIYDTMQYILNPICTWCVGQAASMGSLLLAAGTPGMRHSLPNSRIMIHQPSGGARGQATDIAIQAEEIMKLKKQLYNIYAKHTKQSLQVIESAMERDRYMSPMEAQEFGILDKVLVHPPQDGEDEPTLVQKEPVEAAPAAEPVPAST
Test: Screen of ADEP analogs against HsCIpP: relative degradation (RD) index, casein-FITC degradation relative to E. coli CIpAP
Assay type: biochemical
Parameters: key: casein-FITC degradation by HsClpP relative to EcClpAP
Details: for Hs RD1: RD value at 1 μM of the ADEP analog; for Hs RD5: RD value at 5 μM of the ADEP analog; for Hs RD25: RD value at 25 μM of the ADEP analog, measure of ability to activate HsCIpP
Description: Structural analogs of acyldepsipeptide (ADEP) (Goodreid et al., 2016) that were previously developed as potential antibiotics against bacterial CIpP were screened and assessed for their ability to activate and dysregulate the protease activity of HsCIpP, by measuring their relative degradation (RD) index. Note that ADEP-28 was also previously reported by Carney et al. (2014). Details of the experimental protocol have been described in Leung et al., 2011. The RD index is defined as follows: […]
Δφ is the change in fluorescence after 6 hr of starting the reaction measured using 485 nm excitation and 535 nm emission, which primarily detects the signal from casein-FITC. E. coli CIpAP was used as a benchmark for maximum CIpP proteolytic activity. The CIpP in the numerator can be from any other organism. RD25 measurements refer to the measurement in the presence of 25 μM compound. All ADEP analogs were first screened at 25 μM, and their RD25 scores were calculated using the above formula and method as described in Leung et al., 2011 (FIG. 1A). Those that achieved RD25≥0.87 were screened a second time at 5 μM, followed by calculation of their RD5 scores. The top analogs with RD5≥0.74 were screened a third time at 1 μM, followed by calculation of their RD1 scores (FIG. 1B).
To identify ADEP analogs that allow HsCIpP to degrade folded proteins independent of HsCIpX+ATP (i.e., that activate or dysregulate HsCIpP), the inventors employed the in vitro screening method that was used for identifying small molecule activators of Escherichia coli CIpP (EcCIpP) (Leung et al., 2011). In this approach, the ability of HsCIpP to degrade FITC-labeled casein (casein-FITC) was measured and compared to the ability of EcCIpAP to degrade casein-FITC. This is quantitatively expressed as relative degradation (RD) index (Leung et al., 2011).

SMILES	Hs RD1	Hs RD5	Hs RD25
CCCC/C=C/C(=O)N[C@@H](Cc1ccccc1)C(=O)N[C@H]1COC(=O)[C@@H]2CCCN2C(=O)[C@H](C)NC(=O)[C@H](C)N(C)C(=O)[C@@H]2CCCN2C1=O [ADEP-01] ({Heptenoyl(2E)}-FSP[NMeA]AP; ester 2-C)	0.22	0.70	0.96
CCCC/C=C/C(=O)N[C@H](Cc1ccccc1)C(=O)N[C@H]1COC(=O)[C@@H]2CCCN2C(=O)[C@H](C)NC(=O)[C@@H]2CCCCN2C(=O)[C@@H]2CCCN2C1=O [ADEP-02]	0.52	0.88	1.08
C/C=C/C=C/C(=O)N[C@@H](Cc1ccccc1)C(=O)N[C@H]1COC(=O)[C@@H]2C[C@@H](C)CN2C(=O)[C@H](C)NC(=O)[C@H](C)N(C)C(=O)[C@@H]2CCCN2C1=O [ADEP-03] ({Hexadienoyl(2E,4E)}-FSP[NMeA]A[Pro(4R-Me)]; ester 2-C)			0.66
C/C=C/C=C/C=C/C(=O)N[C@@H](Cc1ccccc1)C(=O)N[C@H]1COC(=O)[C@@H]2C[C@@H](C)CN2C(=O)[C@H](C)NC(=O)[C@H](C)N(C)C(=O)[C@@H]2CCCN2C1=O [ADEP-05] ({Octatrienoyl(2E,4E,6E)}-FSP[NMeA]A[Pro(4R-Me)]; ester 2-C)		0.69	0.98
CCCC/C=C/C(=O)N[C@@H](Cc1cc(F)cc(F)c1)C(=O)N[C@H]1COC(=O)[C@@H]2C[C@@H](C)CN2C(=O)[C@H](C)NC(=O)[C@H](C)N(C)C(=O)[C@@H]2CCCN2C1=O [ADEP-06] ({Heptenoyl(2E)}-[Phe(3,5-F2)]SP[NMeA]A[Pro(4R-Me)]; ester 2-C)	0.64	0.94	1.05
C/C=C/C=C/C=C/C(=O)N[C@@H](Cc1ccccc1)C(=O)N[C@H]1COC(=O)[C@@H]2CCCN2C(=O)[C@H](C)NC(=O)[C@H](C)N(C)C(=O)[C@@H]2CCCN2C1=O [ADEP-08] ({Octatrienoyl(2E,4E,6E)}-FSP[NMeA]AP; ester 2-C)		0.52	0.97
CCC/C=C/C(=O)N[C@@H](Cc1ccccc1)C(=O)N[C@H]1COC(=O)[C@@H]2CCCN2C(=O)[C@H](C)NC(=O)[C@H](C)N(C)C(=O)[C@@H]2CCCN2C1=O [ADEP-09] (X8-FSP[NMeA]AP; ester 2-C)			0.76
CCCC/C=C/C(=O)N[C@@H](Cc1ccccc1)C(=O)N[C@H]1COC(=O)[C@@H]2C[C@@H](C)CN2C(=O)[C@H](C)NC(=O)[C@@H]2CCCCN2C(=O)[C@@H]2CCCN2C1=O [ADEP-10]	0.44	0.85	1.07
CCCCC#CC(=O)N[C@@H](Cc1ccccc1)C(=O)N[C@H]1COC(=O)[C@@H]2CCCN2C(=O)[C@H](C)NC(=O)[C@H](C)N(C)C(=O)[C@@H]2CCCN2C1=O [ADEP-12] (X9-FSP[NMeA]AP; ester 2-C)			0.36
C[C@@H]1C[C@H]2C(=O)O[C@@H](C)[C@H](NC(=O)[C@H](Cc3cc(F)cc(F)c3)NC(=O)/C=C/CC3CC3)C(=O)N3CCC[C@H]3C(=O)N3CCCC[C@H]3C(=O)N[C@@H](C)C(=O)N2C1 [ADEP-13] (X3-[Phe(3,5-F2)][aThr]P[Pip]A[Pro(4R-Me)]; ester 2-C)	0.59	0.91	1.02
CCCC/C=C/C(=O)N[C@@H](Cc1cc(F)cc(F)c1)C(=O)N[C@H]1COC(=O)[C@@H]2C[C@@H](C)CN2C(=O)[C@H](C)NC(=O)[C@@H]2CCCN2C(=O)[C@@H]2CCCN2C1=O [ADEP-15]	0.58	0.92	1.05
C[C@@H]1C[C@H]2C(=O)OC[C@H](NC(=O)[C@H](Cc3ccccc3)NC(=O)OCc3ccccc3)C(=O)N3CCC[C@H]3C(=O)N(C)[C@@H](C)C(=O)N[C@@H](C)C(=O)N2C1 [ADEP-16] (Cbz-FSP[NMeA]A[Pro(4R-Me)]; ester 2-C)			0.06
C[C@@H]1C[C@H]2C(=O)O[C@@H](C)[C@H](NC(=O)[C@H](Cc3cc(F)cc(F)c3)NC(=O)/C=C/CC3CCCCC3)C(=O)N3CCC[C@H]3C(=O)N3CCCC[C@H]3C(=O)N[C@@H](C)C(=O)N2C1 [ADEP-17] (X2-[Phe(3,5-F2)][aThr]P[Pip]A[Pro(4R-Me)]; ester 2-C)	0.86	0.91	1.02
CCCCC/C=C/C(=O)N[C@@H](Cc1ccccc1)C(=O)N[C@H]1COC(=O)[C@@H]2CCCN2C(=O)[C@H](C)NC(=O)[C@H](C)N(C)C(=O)[C@@H]2CCCN2C1=O [ADEP-18] (X4-FSP[NMeA]AP; ester 2-C)		0.72	1.07
CCCC/C=C\C(=O)N[C@@H](Cc1ccccc1)C(=O)N[C@H]1COC(=O)[C@@H]2CCCN2C(=O)[C@H](C)NC(=O)[C@H](C)N(C)C(=O)[C@@H]2CCCN2C1=O [ADEP-19] (X6-FSP[NMeA]AP; ester 2-C)			0.34
CCC/C=C/C(=O)N[C@@H](Cc1cccc(F)c1)C(=O)N[C@H]1COC(=O)[C@@H]2C[C@@H](C)CN2C(=O)[C@H](C)NC(=O)[C@@H]2CCCCN2C(=O)[C@@H]2CCCN2C1=O [ADEP-20]	0.53	0.90	1.04
CCCC/C=C/C(=O)N[C@@H](CC1CCCCC1)C(=O)N[C@H]1COC(=O)[C@@H]2C[C@@H](C)CN2C(=O)[C@H](C)NC(=O)[C@@H]2CCCCN2C(=O)[C@@H]2CCCN2C1=O [ADEP-21] ({Heptenoyl(2E)}-[Cha]SP[Pip]A[Pro(4R-Me)]; ester 2-C)		0.70	1.00
C[C@@H]1NC(=O)[C@H](C)N(C)C(=O)[C@@H]2CCCN2C(=O)[C@@H](NC(=O)[C@H](Cc2ccccc2)NC(=O)OCc2ccccc2)COC(=O)[C@@H]2CCCN2C1=O [ADEP-22] (Cbz-FSP[NMeA]AP; ester 2-C)			0.00
CCCC#CC(=O)N[C@@H](Cc1ccccc1)C(=O)N[C@H]1COC(=O)[C@@H]2CCCN2C(=O)[C@H](C)NC(=O)[C@H](C)N(C)C(=O)[C@@H]2CCCN2C1=O [ADEP-23] (X10-FSP[NMeA]AP; ester 2-C)			0.12
C[C@@H]1NC(=O)[C@@H]2CCCCN2C(=O)[C@@H]2CCCN2C(=O)[C@@H](NC(=O)[C@H](Cc2ccccc2)NC(=O)c2ccc([N+](=O)[O-])cc2)COC(=O)[C@@H]2CCCN2C1=O [ADEP-24]			0.00
CCCC/C=C/C(=O)N[C@@H](Cc1cc(F)cc(F)c1)C(=O)N[C@H]1COC(=O)[C@@H]2C[C@@H](C)CN2C(=O)[C@H](CC)NC(=O)[C@@H]2CCCCN2C(=O)[C@@H]2CCCN2C1=O [ADEP-25] ({Heptenoyl(2E)}-[Phe(3,5-F2)]SP[Pip][Abu][Pro(4R-Me)]; ester 2-C)	0.61	0.92	0.97
C/C=C/C=C/C(=O)N[C@@H](Cc1ccccc1)C(=O)N[C@H]1COC(=O)[C@@H]2CCCN2C(=O)[C@H](C)NC(=O)[C@H](C)N(C)C(=O)[C@@H]2CCCN2C1=O [ADEP-26] ({Hexadienoyl(2E,4E)}-FSP[NMeA]AP; ester 2-C)			0.86
CCCCCC#CC(=O)N[C@@H](Cc1ccccc1)C(=O)N[C@H]1COC(=O)[C@@H]2CCCN2C(=O)[C@H](C)NC(=O)[C@H](C)N(C)C(=O)[C@@H]2CCCN2C1=O [ADEP-27] (X5-FSP[NMeA]AP; ester 2-C)			0.64
CCCC/C=C/C(=O)N[C@@H](Cc1cc(F)cc(F)c1)C(=O)N[C@@H]1C(=O)N2CCC[C@H]2C(=O)N2CCCC[C@H]2C(=O)N[C@@H](C)C(=O)N2C[C@H](C)C[C@H]2C(=O)O[C@H]1C [ADEP-29] ({Heptenoyl(2E)}-[Phe(3,5-F2)][aThr]P[Pip]A[Pro(4R-Me)]; ester 2-C)	0.76	0.87	0.92
CCCC/C=C/C(=O)N[C@@H](Cc1cc(F)cc(F)c1)C(=O)N[C@H]1COC(=O)[C@@H]2C[C@@H](C)CN2C(=O)[C@H](C)NC(=O)[C@@H]2C[C@@H](C)CCN2C(=O)[C@@H]2CCCN2C1=O [ADEP-30] ({Heptenoyl(2E)}-[Phe(3,5-F2)]SP[Pip(4S-Me)]A[Pro(4R-Me)]; ester 2-C)	0.69	0.93	0.98
C[C@@H]1C[C@H]2C(=O)OC[C@H](NC(=O)[C@@H](N)Cc3ccccc3)C(=O)N3CCC[C@H]3C(=O)N(C)[C@@H](C)C(=O)N[C@@H](C)C(=O)N2C1 [ADEP-31] (H-FSP[NMeA]A[Pro(4R-Me)]; ester 2-C)			0.00
CCCC/C=C/C(=O)N[C@@H](Cc1cc(F)cc(F)c1)C(=O)N[C@H]1CNC(=O)[C@@H]2C[C@@H](C)CN2C(=O)[C@H](C)NC(=O)[C@@H]2CCCCN2C(=O)[C@@H]2CCCN2C1=O [ADEP-32] ({Heptenoyl(2E)}-[Phe(3,5-F2)][Dap]P[Pip]A[Pro(4R-Me)]; lactam 2-C)	0.79	0.96	1.03
